# Experimental data as given in US8999320B2, “Nanoscale bound bilayers, methods of use and production” (The Rockefeller University, priority 2008, dated 2015).
# How the values were obtained:
# 2D7 capture antibody = assay: Sandwich ELISA with conformation sensitive 2D7 capture and 1D4 detection antibodies; format: binding; settings: CCR5 from HEK-293 cells; 30 minutes at room temperature; sample 1 = DDM, CHAPS, DOPC/POPC
# Experimental: The primary (capture) antibody was diluted to 1 μg/mL in 1×PBS pH 7.2 and 100 μL was added to each well of the microplate (Costar clear-bottom, black 96-well). The plate was stored overnight at 4° C. The plate wells were washed twice with PBS containing 0.05% Tween-20 and once with PBS and 200 μL of 10 mg/mL (1%) fatty-acid free BSA in PBS. The plate was either incubated at room temperature for 2 hours or overnight at 4° C. G-protein coupled receptor (GPCR)—NABBs were added to the respective wells in a final volume of 100 μL. GPCR-NABB was diluted in PBS containing 1 mg/mL (0.1%) BSA. The microplate was incubated at 4° C. overnight to ensure complete binding of epitope on the GPCR-NABB to the capture antibody. The analyte was then washed 3 times with 0.1% BSA-PBS using 200 μL per wash. […] The fluorescence in the wells was measured using a Cytofluor-II spectrofluorimeter with excitation at 530 nm and emission at 590 nm.
# Conformational stability of the extracellular side of CCR5 after exposure to different detergents was determined by a sandwich ELISA using 2D7 and 1D4 antibodies. […] The amount of CCR5 bound to the 2D7 capture antibody was measured by detecting the binding of the second antibody-HRP-linked 1D4, and adding a fluorogenic HRP substrate in the microplate wells. […]
# CCR5 = molecular target: T1, CCR5 (Homo sapiens, UniProt P51681); assay: High-throughput G-protein activation assay (BODIPY-FL-GTPγS binding) with CCR5-NABBs; format: biochemical; settings: 50 nM RANTES, CCR5 in NABBs
# T1 construct: made in house; host or cells: HEK-293 cells stably expressing CCR5, immunopurified on 1D4-sepharose
# Experimental: A black, C-bottom 96-well plate was used for the high-throughput G-protein activation assay. 25 μL of purified G protein or its subunits were added to the microplate wells from a […] protein stock. The added proteins were either Gi1α subunit, Gi1α with transducin βγ subunits, or holotransducin (Gt), with 25 μl of buffer G1 without GDP. […] 100 μL of CCR5-NABB solution with and without RANTES were added to the respective wells and the microplate incubated at room temperature for 15 minutes. 60 μL of BODIPY-FL-GTPγS was added from a 1 μM stock to all wells using a multi-channel pipettor. The plate was shaken for 30 seconds, covered and incubated at room temperature for 5 minutes. The fluorescence in the wells was recorded using a Cytofluor II microplate reader with excitation wavelength at 485 nm and 20 nm bandpass, emission wavelength at 530 nm and 25 nm bandpass. The gain was set to 95 and 15 reads were integrated for each well. The fluorescence values from the wells containing BODIPY-FL-GTPγS and no G protein was subtracted from the rest of the data as background. The fluorescence values from wells containing the CCR5-NABBs with no RANTES was subtracted from RANTES-containing wells to determine the RANTES-specific response.
# CCR5 activation of G protein was measured by binding of a fluorescently labeled nucleotide analog BODIPY-FL-GTPγS. […]
# T1 sequence (P51681 whole entry): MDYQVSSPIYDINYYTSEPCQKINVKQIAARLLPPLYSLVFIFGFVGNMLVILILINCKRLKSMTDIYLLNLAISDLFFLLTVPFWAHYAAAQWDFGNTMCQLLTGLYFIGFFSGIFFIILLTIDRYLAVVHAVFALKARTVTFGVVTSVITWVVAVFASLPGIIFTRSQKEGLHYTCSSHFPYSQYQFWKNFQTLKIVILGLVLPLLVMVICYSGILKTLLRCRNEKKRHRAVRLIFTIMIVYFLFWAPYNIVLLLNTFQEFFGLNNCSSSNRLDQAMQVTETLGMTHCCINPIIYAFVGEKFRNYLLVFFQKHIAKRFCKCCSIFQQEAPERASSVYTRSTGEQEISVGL
Compound,2D7/1D4 sandwich ELISA signal relative to sample 1 (2D7 capture antibody) [%],"enhancement of B-GTPγS binding to the G protein, compared with unstimulated CCR5-NABBs (CCR5)"
"CCCCCCCCCCCCO[C@@H]1O[C@H](CO)[C@@H](O[C@H]2O[C@H](CO)[C@@H](O)[C@H](O)[C@H]2O)[C@H](O)[C@H]1O [DDM, n-dodecyl-beta-D-maltopyranoside]",65,–
RANTES: ligand used to stimulate CCR5 in NABBs,–,up to 30%
